Laboratory results as given in the supplement of paper PMC7600603.

Assays:
DLD1 NRF2-WT [1] = details: 72 h; CellTiter-Glo viability
Method in brief: (§1)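 Library compounds were tested in 384-well plates at 5 concentrations covering a 10,000-fold span against isogenic DLD1 colorectal cancer cells, NRF2 wild-type or CRISPR gain-of-function, grown in DMEM with 10% FBS. Viability was measured at 72 h with CellTiter-Glo on a Pherastar FS reader, relative to vehicle wells and 100-μM positive-control wells. EC50 and drug sensitivity score (normalised area under the curve) were derived from logistic dose-response curves fitted with four parameters.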

DLD1 NRF2-GOF [2] = details: 72 h; CellTiter-Glo viability
Method in brief: as §1

DLD1 NRF2-WT [3] = test: drug sensitivity score (DSS) viability (DSS score); higher = more sensitive; extreme values may be limits of the assay; details: 72 h; CellTiter-Glo viability
Method in brief: as §1

DLD1 NRF2-GOF [4] = test: as above; details: 72 h; CellTiter-Glo viability
Method in brief: as §1

DLD1 NRF2-WT [5] = test: drug sensitivity score (DSS) cytotoxicity (DSS score); higher = more toxic; extreme values may be limits of the assay; details: 72 h; CellTox Green cytotoxicity
Method in brief: (§2)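 Isogenic DLD1 colorectal cancer cells, either NRF2 wild-type or CRISPR gain-of-function, were grown in DMEM with 10% FBS. They were exposed in 384-well plates to library compounds at 5 concentrations spanning a 10,000-fold range. After 72 h, cytotoxicity was read by CellTox Green on a Pherastar FS reader and normalised to vehicle wells and 100-μM positive-control wells. TC50 and drug sensitivity score (a normalised area under the curve) came from logistic dose-response fits.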

DLD1 NRF2-GOF [6] = test: as above; details: 72 h; CellTox Green cytotoxicity
Method in brief: as §2

DLD1 NRF2-WT [7] = test: TC50 cytotoxicity; higher = less toxic; details: 72 h; CellTox Green cytotoxicity
Method in brief: as §2

DLD1 NRF2-GOF [8] = test: TC50 cytotoxicity; higher = less toxic; details: 72 h; CellTox Green cytotoxicity
Method in brief: as §2

SMILES	EC50 viability (DLD1 NRF2-WT [1]) [µM]	EC50 viability (DLD1 NRF2-GOF [2]) [µM]	drug sensitivity score (DLD1 NRF2-WT [3])	drug sensitivity score (DLD1 NRF2-GOF [4])	drug sensitivity score (DLD1 NRF2-WT [5])	drug sensitivity score (DLD1 NRF2-GOF [6])	TC50 cytotoxicity (DLD1 NRF2-WT [7]) [µM]	TC50 cytotoxicity (DLD1 NRF2-GOF [8]) [µM]
NS(=O)(=O)NCCNc1nonc1/C(=N/O)Nc1ccc(F)c(Br)c1 [Epacadostat]	1.67	1.75	3.8	3.2	0	0	> 10	> 10
CCOC(=O)CCNc1cc(N2CCc3ccccc3CC2)nc(-c2ccccn2)n1 [GSK-J4]	2.95	3.55	17	16.4	0	7.8	> 100	2.8
C[C@@H]1CN(C(=O)c2ccc(NC(=O)c3cc(O[C@H](C)c4c(Cl)ccc(F)c4Cl)c(N)nn3)cc2)C[C@H](C)N1 [Ensartinib]	> 1	> 1	0	0.1	0.3	0.2	> 1	> 1
Cc1cn(-c2cc(NC(=O)c3ccc(C)c(Nc4nccc(-c5cnccn5)n4)c3)cc(C(F)(F)F)c2)cn1 [Radotinib]	> 10	> 10	0	0.4	0	0.3	> 10	> 10
C[C@@]1(C(=O)Nc2ccc(F)nc2)CCCN1c1nc(Nc2cc(C3CC3)n[nH]2)c2cccn2n1	0.252	0.279	13	14.8	6.3	11	0.326	0.319
N#CCNC(=O)c1ccc(-c2ccnc(Nc3ccc(N4CCOCC4)cc3)n2)cc1 [Momelotinib]	2.8	3.25	4.1	2.8	0.2	0.1	> 10	> 10
CC(O)c1cc(C(=O)N[C@@H](C)Cn2ccc(-c3ccc(C#N)c(Cl)c3)n2)n[nH]1 (stereo partly specified) [ODM-201]	> 2.5	> 2.5	0.2	0.9	0	0	> 2.5	> 2.5
CN1CCN(C2CCN(C(=O)Nc3cc(Oc4ccc(NC(=O)C5(C(=O)Nc6ccc(F)cc6)CC5)c(F)c4)ccn3)CC2)CC1 [Golvatinib]	> 2.5	> 2.5	1.2	0	0	0	> 2.5	> 2.5
CCNc1nc(Nc2cc(F)c(C(=O)N3CCOCC3)cc2OC)ncc1C(F)(F)F [GNE-7915]	0.148	0.253	3.3	2.9	0	0	> 1	> 1
CC(C)C[C@H](NC(=O)CNC(=O)c1cc(Cl)ccc1Cl)B(O)O [Ixazomib]	0.11	0.125	11	10.3	9.6	6.8	0.148	0.246
O=C(Nc1nc2cccc(-c3ccc(CN4CCS(=O)(=O)CC4)cc3)n2n1)C1CC1 [Filgotinib]	2.09	0.79	6.7	11.7	0	0.8	> 10	> 10
CO[C@H]1CC[C@H](N2C(=O)CNc3ncc(-c4ccc(C(C)(C)O)nc4)nc32)CC1 [CC-223]	2.25	1.71	4.6	5.3	0	0.1	> 10	> 10
CC(=O)[C@]1(O)Cc2c(O)c3c(c(O)c2[C@@H](O[C@H]2C[C@H](N)[C@H](O)[C@H](C)O2)C1)C(=O)c1ccccc1C3=O [Idarubicin]	0.0452	0.0969	14.2	10	4.8	2.4	0.15	0.219
COCC[n+]1c2c(n(Cc3cnccn3)c1C)C(=O)c1ccccc1C2=O [Sepantronium bromide]	0.0068	0.0037	38.7	41.8	21.7	30.9	0.0287	0.0275
COC12C(COC(N)=O)C3=C(C(=O)C(C)=C(N)C3=O)N1CC1NC12 (stereo in doubt) [Mitomycin C]	> 10	1.7	0	4	0	0	> 10	> 10
CCNC(=O)C[C@@H]1N=C(c2ccc(Cl)cc2)c2cc(OC)ccc2-n2c(C)nnc21	1.09	> 10	5.2	0.1	0	0	> 10	> 10
CCC/C=C/C=C/C(=O)O[C@H]1/C(=C/C(=O)OC)C[C@H]2C[C@H]([C@@H](C)O)OC(=O)C[C@H](O)C[C@@H]3C[C@H](OC(C)=O)C(C)(C)[C@](O)(C[C@@H]4C/C(=C/C(=O)OC)C[C@H](/C=C/C(C)(C)[C@]1(O)O2)O4)O3 [Bryostatin 1]	> 0.1	> 0.1	0.2	2.8	0	0	> 0.1	> 0.1
CCn1c(C(=O)N(C2CC2)C2CC2)cc2c3c(ncn3C)c(Nc3cc(C)n(C)n3)nc21	0.217	1.17	7.2	7.1	0	0	> 10	> 10
CCc1cncnc1N1CCN(Cc2nc3cc(C(F)(F)F)ccc3[nH]2)CC1	1.51	1.53	4.6	3	0	0	> 10	> 10
COc1cc(Nc2c(C#N)cnc3cc(OCCCN4CCN(C)CC4)c(OC)cc23)c(Cl)cc1Cl [Bosutinib]	1.22	1.48	10	9.3	3.8	3.1	3.5	3.43
Cc1ccc(F)c(NC(=O)Nc2ccc(-c3cccc4[nH]nc(N)c34)cc2)c1 [Linifanib]	> 1	> 1	0.5	1.1	0	0	> 1	> 1

SMILES	EC50 viability (DLD1 NRF2-WT [1]) [µM]	EC50 viability (DLD1 NRF2-GOF [2]) [µM]	drug sensitivity score (DLD1 NRF2-WT [3])	drug sensitivity score (DLD1 NRF2-GOF [4])	drug sensitivity score (DLD1 NRF2-WT [5])	drug sensitivity score (DLD1 NRF2-GOF [6])	TC50 cytotoxicity (DLD1 NRF2-WT [7]) [µM]	TC50 cytotoxicity (DLD1 NRF2-GOF [8]) [µM]
O=c1ncn2nc(Sc3ccc(F)cc3F)ccc2c1-c1c(Cl)cccc1Cl [VX-745]	> 10	> 10	1.4	0.2	0	0	> 10	> 10
COc1ccc(-c2ccc3c(N4CCOC[C@@H]4C)nc(N4CCOC[C@@H]4C)nc3n2)cc1CO [AZD8055]	0.0751	0.103	19.1	17.4	0	0	> 10	> 10
COc1cc2nccc(Oc3ccc(NC(=O)C4(C(=O)Nc5ccc(F)cc5)CC4)cc3)c2cc1OC [Cabozantinib]	> 1	> 1	0	1.1	0	0	> 1	> 1
Cc1cc([C@@H](C)Nc2ccccc2C(=O)O)c2nc(N3CCOCC3)cc(=O)n2c1 [AZD-6482]	> 2.5	> 2.5	0.1	0	0	0	> 2.5	> 2.5
CNC(=O)c1cc(Oc2ccc(NC(=O)Nc3ccc(Cl)c(C(F)(F)F)c3)c(F)c2)ccn1 [Regorafenib]	3.3	3.71	3.8	2.4	0	0	> 10	> 10
CN(C)C1CCN(C(=O)c2ccc(NC(=O)Nc3ccc(-c4nc(N5CCOCC5)nc(N5CCOCC5)n4)cc3)cc2)CC1 [Gedatolisib]	0.0196	0.0266	13.5	12.6	0	0	> 1	> 1
CN(C)C/C=C/C(=O)Nc1cc2c(Nc3ccc(F)c(Cl)c3)ncnc2cc1O[C@H]1CCOC1 [Afatinib]	0.148	0.145	3.3	2.9	0	0	> 1	> 1
COc1ccc(-c2ccc3ncc4c(c3c2)n(-c2ccc(N3CCNCC3)c(C(F)(F)F)c2)c(=O)n4C)cn1 [NVP-BGT226]	0.0264	0.035	17.5	16.2	4.4	4.1	0.338	0.359
C[C@]1(O)C[C@@H](c2nc(-c3ccc4ccc(-c5ccccc5)nc4c3)c3c(N)nccn32)C1 [Linsitinib]	> 10	> 10	0	0	0	0	> 10	> 10
CN1CCc2c(c3ccccc3n2Cc2ccc(C(=O)NO)cc2)C1 [Tubastatin A]	0.295	1.56	4	4.1	0	0	> 10	> 10
C=C(c1ccc(C(=O)O)cc1)c1cc2c(cc1C)C(C)(C)CCC2(C)C [Bexarotene]	> 10	1.03	0	3.9	0	0	> 10	> 10
Nc1cc(C(F)(F)F)c(-c2cc(N3CCOCC3)nc(N3CCOCC3)n2)cn1 [Buparlisib]	1.78	3.13	7	4.2	0.4	0	> 10	> 10
COc1cc2ncnc(Nc3ccc(F)c(Cl)c3)c2cc1NC(=O)/C=C/CN1CCCCC1 [Dacomitinib]	0.0964	0.247	5.9	2.4	0	0	> 1	> 1
NC1(C(=O)N[C@@H](CCO)c2ccc(Cl)cc2)CCN(c2ncnc3[nH]ccc23)CC1 [AZD-5363]	0.687	1.51	6.1	5.2	0	0	> 10	> 10
O=C(/C=C\n1cnc(-c2cc(C(F)(F)F)cc(C(F)(F)F)c2)n1)NNc1cnccn1 [Selinexor]	0.202	0.323	16.7	15.5	1.5	2.5	> 10	> 10
CCS(=O)(=O)N1CCN(c2ccc(Nc3ncc(C(N)=O)c(NC4CC4)n3)cc2)CC1 [Cerdulatinib]	0.323	0.0649	4.3	13.8	0	0	> 10	> 10
CCN(CC)CCCC(C)Nc1ccnc2cc(Cl)ccc12 (stereo unspecified) [Chloroquine]	6.41	9.78	13.8	11.8	6	5	26.1	25.8
COc1cccc2c1c(O)c(C(=O)N(C)c1ccc(C(F)(F)F)cc1)c(=O)n2C [Tasquinimod]	> 10	> 10	1.8	1.2	0	0	> 10	> 10
Cc1cc2c(C(C)C)c(O)c(O)c(C=O)c2c(O)c1-c1c(C)cc2c(C(C)C)c(O)c(O)c(C=O)c2c1O [AT 101]	4.41	6.1	15.9	14.4	1.7	1	30.3	> 100
CCn1c(=O)c(-c2ccc(Cl)cc2Cl)cc2cnc(Nc3ccc(N4CCNCC4)c(F)c3)nc21 [FRAX486]	0.25	0.626	9.8	7.1	0	0	> 5	> 5
C=CC(=O)N1CCC(Oc2cc3c(Nc4ccc(Cl)c(Cl)c4F)ncnc3cc2OC)CC1 [Poziotinib]	0.203	0.258	3.6	2.7	0	0	> 1	> 1
